Data on three compounds can be found in publication PMC8950706, “Influence of Substitutions in the Binding Motif of Proline-Rich Antimicrobial Peptide ARV-1502 on 70S Ribosome Binding and Antimicrobial Activity” (International Journal of Molecular Sciences, 2022).

The subject of assay [1] is E. coli 70S ribosome. Put plainly: Competitive fluorescence polarization assay against Cf-ARV-1502 (Ki). The assay is classed as binding, E. coli BW25113. The following applies: 20 nmol/L Cf-ARV-1502, 0.5 µmol/L ribosome, 28 °C, 90 min + 90 min, Ki calculated from IC50; for Ki: read-out: Ki (nmol/L), competition with Cf-ARV-1502. As for the experimental part:
E. coli 70S ribosomes were prepared using a previously described protocol that was slightly modified. Briefly, E. coli BW25113 was cultivated in Luria-Bertani (LB) medium and cells were harvested after reaching an optical density of ~4 at 600 nm by centrifugation (5000× g, 15 min, 4 °C, Rotor JLA 8.100, Avanti J-20 XP, Beckmann Coulter, Krefeld, Germany). The cell pellets were frozen and stored at −80 °C. Cells were resuspended in ribosome buffer (2 mL/g cells; 20 mmol/L HEPES-KOH, 6 mmol/L MgCl2, 30 mmol/L NH4Cl, 4 mmol/L 2-mercaptoethanol, pH 7.6). Lysozyme (0.25 g/L cell suspension) was added, and the mixture was incubated on ice for 30 min. Cells were disrupted using the bead mill homogenizer FastPrep-24™ 5G (40 s, 4 m/s, 6 cycles, MP Biomedicals Germany GmbH, Eschwege, Germany) and zirconia/silica beads (0.1 mm diameter). The lysate was centrifuged (1500× g, 5 min, 4 °C, Rotor S4180, Allegra 21R, Beckmann Coulter) and the supernatant was incubated with DNase (5 U/mL) on ice for 60 min.
Dissociation and inhibitory constants were determined in black 384-well-plates (Greiner Bio-One GmbH, Frickenhausen, Germany) blocked with 0.5% (w/v) casein in phosphate buffered saline (PBS, 8.8 mmol/L Na2HPO4×12 H2O, 1.2 mmol/L KH2PO4, 0.3 mol/L NaCl, pH 7.4) containing 0.05% (w/v) Tween® 20 (PBST) overnight at 4 °C and washed three times with PBST.
Ribosome solution was added (10 µmol/L) and the plate was incubated after centrifugation (2 min, 500× g, Rotor S2096, Allegra^TM 21R, Beckmann Coulter) at 28 °C for 90 min. Cf-labeled peptide was added (10 µL; final concentration of 20 nmol/L; final ribosome concentration of 0.5 µmol/L) and the plate was centrifuged and incubated again (90 min, 28 °C, dark). […] Kd and IC50 values were calculated by fitting the data with a variable slope parameter [y = min + (max − min)/(1 + (x/Kd) ^−Hill slope) ] using SigmaPlot 13 (Systat Software Inc., San Jose, CA, USA). The obtained IC50 values were used to calculate the Ki values.

Assay [2] concerns E. coli 70S ribosome. Put plainly: Competitive FP binding screening assay with Cf-ARV-1502 (relative FP). Also on record: species or system E. coli BW25113. The following applies: for Ribosome Binding (%): competitive ribosome binding against Cf-ARV-1502 (relative FP; values match 1.2 µmol/L peptide), low value = strong competition. The gist of the method: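 E. coli BW25113 70S ribosomes (final 0.5 µmol/L) preincubated 90 min at 28 °C with unlabeled peptides in four twofold dilutions, then Cf-ARV-1502 (final 20 nmol/L) added for a further 90 min at 28 °C. Buffer: HEPES-KOH pH 7.6, 6 mmol/L MgCl2. Fluorescence polarization (ex 485/em 535 nm) normalized to ribosome-free and ribosome-containing controls.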

[3] abbreviates: control without unlabeled peptide = 100%, 0.5 µmol/L ribosome, 20 nmol/L Cf-ARV-1502, triplicates, repeated once on another day.

Square brackets hold non-standard residues; d marks the D form. Peptide text beside a SMILES is read from it. Ac6c = NC1(C(=O)O)CCCCC1

In the case of `CC(C)C[C@H](NC(=O)[C@H](Cc1ccc(O)cc1)NC(=O)[C@@H]1CCCN1C(=O)[C@H](CCCNC(=N)N)NC(=O)[C@@H]1CCCN1C(=O)[C@H](CCCCN)NC(=O)[C@H](CC(=O)O)NC(=O)[C@@H]1CCCN1C(=O)[C@H](CCCNC(=N)N)NC(=O)C1(N)CCCCC1)C(=O)N1CCC[C@H]1C(=O)N[C@@H](CCCNC(=N)N)C(=O)N1CCC[C@H]1C(=O)N[C@@H](CCCNC(=N)N)C(=O)N1CCC[C@H]1C(=O)N1CCC[C@H]1C(=O)N[C@@H](CCCNC(=N)N)C(=O)N1CCC[C@H]1C(=O)N[C@H](C(=O)N[C@@H](CCCNC(=N)N)C(N)=O)C(C)C` [ARV-1502] (H-[Ac6c]RPDKPRPYLPRPRPPRPVR-NH2), in the assay on E. coli 70S ribosome [1], the Ki is 135 ± 10 nmol/L. For the same compound, in the assay with E. coli 70S ribosome [2], the “Ribosome Binding (%)” value was found to be 40.9 ± 3.9%. Besides, in the assay with E. coli 70S ribosome [2] (setting [3]), the “Relative FP at 1.2 µmol/L unlabeled peptide” value came out at 40.9 ± 3.9% and the “Relative FP at 2.4 µmol/L unlabeled peptide” value was 32.1 ± 1.3%.

For the compound `CC[C@H](C)[C@H](NC(=O)[C@@H](CCCNC(=N)N)NC(=O)[C@H](CCCNC(=N)N)NC(=O)[C@@H]1CCCN1C(=O)[C@@H]1CCCN1C(=O)[C@H](CCCNC(=N)N)NC(=O)[C@@H]1CCCN1C(=O)[C@H](CCCNC(=N)N)NC(=O)[C@@H]1CCCN1C(=O)[C@H](CC(C)C)NC(=O)[C@H](Cc1ccc(O)cc1)NC(=O)[C@@H]1CCCN1C(=O)[C@@H]1CCCN1C(=O)[C@H](CCCCN)NC(=O)[C@H](CC(=O)O)NC(=O)[C@@H](N)C(C)C)C(=O)N[C@@H](Cc1ccc(O)cc1)C(=O)N[C@@H](CC(N)=O)C(=O)N[C@H](CCCNC(=N)N)C(N)=O` [Onc112, reference compound] (H-VDKPPYLPRPRPPR[dR]IYN[dR]-NH2; N-terminus and C-terminus assumed), in the assay with E. coli 70S ribosome [1], the Ki was 124 ± 2 nmol/L. Moreover, the “Ribosome Binding (%)” value in the assay with E. coli 70S ribosome [2] was 32.1 ± 1.0%.

For the compound `CC(C)C[C@H](NC(=O)[C@H](Cc1ccc(O)cc1)NC(=O)[C@@H]1CCCN1C(=O)[C@H](CCCNC(=N)N)NC(=O)[C@@H]1CCCN1C(=O)[C@H](CCCCN)NC(=O)[C@H](CCCCN)NC(=O)[C@@H]1CCCN1C(=O)[C@H](CCCNC(=N)N)NC(=O)C1(N)CCCCC1)C(=O)N1CCC[C@H]1C(=O)N[C@@H](CCCNC(=N)N)C(=O)N1CCC[C@H]1C(=O)N[C@@H](CCCNC(=N)N)C(=O)N1CCC[C@H]1C(=O)N1CCC[C@H]1C(=O)N[C@@H](CCCNC(=N)N)C(=O)N1CCC[C@H]1C(=O)N[C@H](C(=O)N[C@@H](CCCNC(=N)N)C(N)=O)C(C)C` [Peptide 2] (H-[Ac6c]RPKKPRPYLPRPRPPRPVR-NH2; N-terminus and C-terminus assumed), the “Ki (nmol/L), competition with Cf-ARV-1502” value in the assay on E. coli 70S ribosome [1] is “did not alter the Ki value”. In addition, in the assay on E. coli 70S ribosome [2] (Figure 3: peptide concentration 1.2 µmol/L), the “Inhibition of Cf-ARV-1502 binding to the 70S ribosome (in words)” value is “did not reduce the competition with Cf-ARV-1502”. Also, the “Ribosome Binding (%)” value in the assay with E. coli 70S ribosome [2] worked out at 40.3 ± 2.2%.
